{"source": "EPA's ToxValDB 9.5 (doi:10.2903/j.efsa.2005.46r)", "key": {"Bibionidae": {"system": "Bibionidae", "settings": "chronic/long-term; duration: 28 days; development"}, "Tagia sp.": {"system": "Tagia sp.", "settings": "acute; duration: 14 days; mortality"}, "Mus musculus": {"system": "Mus musculus", "settings": "chronic; duration: 18 months; M; body weight"}, "Chrysoperla externa": {"system": "Chrysoperla externa", "settings": "not reported; mortality"}, "Oncorhynchus mykiss": {"system": "Oncorhynchus mykiss", "settings": "for NOEC: chronic/long-term"}, "Apis mellifera": {"system": "Apis mellifera", "settings": "acute, mortality"}, "Daphnia magna": {"system": "Daphnia magna", "settings": "chronic/long-term; duration: 21 days; reproduction"}, "Typhlodromus pyri": {"system": "Typhlodromus pyri", "settings": "not reported; mortality"}, "Pimephales promelas": {"system": "Pimephales promelas", "settings": "chronic/long-term; duration: 36 days; time to hatch"}, "Colinus virginianus": {"system": "Colinus virginianus", "settings": "acute; oral; mortality"}}}
{"molecule": "CNC(=O)/C(=N/OC)c1ccccc1COc1cc(C)ccc1C", "note": "[Dimoxystrobin]", "values": [{"measurement": "NOEC", "setting": "Bibionidae", "value": 0.01, "unit": "mg/L"}, {"measurement": "LC50", "setting": "Tagia sp.", "value": 47.3, "unit": "mg/kg"}, {"measurement": "NOEC", "setting": "Anas platyrhynchos; reproductive", "value": 36, "unit": "mg/kg-day"}, {"measurement": "LC50", "setting": "Anas platyrhynchos; short-term, oral, feed, mortality", "value": "> 232", "unit": "mg/kg-day"}, {"measurement": "NOAEL", "setting": "Mus musculus", "value": 4, "unit": "mg/kg-day"}, {"measurement": "LEL", "setting": "Chrysoperla externa", "value": 200, "unit": "g/ha"}, {"measurement": "LC50", "setting": "Oncorhynchus mykiss; acute, duration: 96 hours, mortality", "value": 0.0434, "unit": "µg/mL"}, {"measurement": "NOEC", "setting": "Oncorhynchus mykiss; duration: 28 days, mortality", "value": 0.01, "unit": "mg/L"}, {"measurement": "NOEC", "setting": "Oncorhynchus mykiss; duration: 97 days, behavior", "value": 0.000316, "unit": "mg/L"}, {"measurement": "LD50", "setting": "Apis mellifera; dermal", "value": "> 100", "unit": "µg/piece"}, {"measurement": "LD50", "setting": "Apis mellifera; duration: 48 hours, oral, unspecified", "value": "> 79.4", "unit": "µg/piece"}, {"measurement": "NOEC", "setting": "Daphnia magna", "value": 0.0125, "unit": "mg/L"}, {"measurement": "LEL", "setting": "Typhlodromus pyri", "value": 200, "unit": "g/ha"}, {"measurement": "NOEC", "setting": "Pimephales promelas", "value": 0.016, "unit": "mg/L"}, {"measurement": "LD50", "setting": "Colinus virginianus", "value": "> 2000", "unit": "mg/kg"}, {"measurement": "LC50", "setting": "Rattus norvegicus; acute, oral, diet, mortality", "value": 5, "unit": "mg/kg-day"}, {"measurement": "NOAEL", "setting": "Rattus norvegicus; short-term, duration: 7 days, clinical chemistry", "value": 4, "unit": "mg/kg-day"}]}
